Measurements reported in article PMC9481151, “Discovery of new symmetrical and asymmetrical nitrile-containing 1,4-dihydropyridine derivatives as dual kinases and P-glycoprotein inhibitors: synthesis, in vitro assays, and in silico studies” (Journal of Enzyme Inhibition and Medicinal Chemistry, 2022).

Legend:
[1] = test system: MCF7; experiment: NCI single dose (10 µM) SRB screen; type: cell-based, human; details: breast cancer, 48 h
[2] = test system: NCI-H23; experiment: NCI single dose (10 µM) SRB screen; type: cell-based, human; details: non-small cell lung cancer, 48 h
[3] = test system: DU-145; experiment: NCI single dose (10 µM) SRB screen; type: cell-based, human; details: prostate cancer, 48 h
[4] = test system: KM12; experiment: NCI single dose (10 µM) SRB screen; type: cell-based, human; details: colon cancer, 48 h
[5] = test system: Escherichia coli; experiment: Agar well diffusion method
[6] = test system: T-47D; experiment: NCI single dose (10 µM) SRB screen; type: cell-based, human; details: breast cancer, 48 h
[7] = test system: M14; experiment: NCI single dose (10 µM) SRB screen; type: cell-based, human; details: melanoma, 48 h
[8] = test system: HS578T; experiment: NCI single dose (10 µM) SRB screen; type: cell-based, human; details: breast cancer, 48 h
[9] = test system: NCI 60 cancer cell lines; experiment: NCI single dose (10 µM) SRB screen, mean over panel; type: cell-based, human; details: mean over 60 cell lines, 48 h
[10] = test system: NCI-H226; experiment: NCI single dose (10 µM) SRB screen; type: cell-based, human; details: non-small cell lung cancer, 48 h
[11] = test system: OVCAR-5; experiment: NCI single dose (10 µM) SRB screen; type: cell-based, human; details: ovarian cancer, 48 h
[12] = test system: MDA-MB-231; experiment: NCI single dose (10 µM) SRB screen; type: cell-based, human; details: breast cancer, 48 h
[13] = test system: UACC-62; experiment: NCI single dose (10 µM) SRB screen; type: cell-based, human; details: melanoma, 48 h
[14] = test system: LOX IMVI; experiment: NCI single dose (10 µM) SRB screen; type: cell-based, human; details: melanoma, 48 h
[15] = test system: HT29; experiment: NCI single dose (10 µM) SRB screen; type: cell-based, human; details: colon cancer, 48 h
[16] = test system: COLO 205; experiment: NCI single dose (10 µM) SRB screen; type: cell-based, human; details: colon cancer, 48 h
[17] = test system: HOP-92; experiment: NCI single dose (10 µM) SRB screen; type: cell-based, human; details: non-small cell lung cancer, 48 h
[18] = test system: OVCAR-8; experiment: NCI single dose (10 µM) SRB screen; type: cell-based, human; details: ovarian cancer, 48 h
[19] = test system: A498; experiment: NCI single dose (10 µM) SRB screen; type: cell-based, human; details: renal cancer, 48 h
[20] = test system: Candida albicans; experiment: Agar well diffusion method
[21] = test system: SW-620; experiment: NCI single dose (10 µM) SRB screen; type: cell-based, human; details: colon cancer, 48 h
[22] = test system: IGROV1; experiment: NCI single dose (10 µM) SRB screen; type: cell-based, human; details: ovarian cancer, 48 h
[23] = test system: SF-268; experiment: NCI single dose (10 µM) SRB screen; type: cell-based, human; details: CNS cancer, 48 h
[24] = test system: PC-3; experiment: NCI single dose (10 µM) SRB screen; type: cell-based, human; details: prostate cancer, 48 h
[25] = test system: NCI-H460; experiment: NCI single dose (10 µM) SRB screen; type: cell-based, human; details: non-small cell lung cancer, 48 h
[26] = test system: SF-539; experiment: NCI single dose (10 µM) SRB screen; type: cell-based, human; details: CNS cancer, 48 h
[27] = test system: 786-0; experiment: NCI single dose (10 µM) SRB screen; type: cell-based, human; details: renal cancer, 48 h
[28] = test system: SK-MEL-5; experiment: NCI single dose (10 µM) SRB screen; type: cell-based, human; details: melanoma, 48 h
[29] = test system: HCC-2998; experiment: NCI single dose (10 µM) SRB screen; type: cell-based, human; details: colon cancer, 48 h
[30] = test system: HCT-15; experiment: NCI single dose (10 µM) SRB screen; type: cell-based, human; details: colon cancer, 48 h
[31] = test system: MDA-MB-468; experiment: NCI single dose (10 µM) SRB screen; type: cell-based, human; details: breast cancer, 48 h
[32] = test system: HCT-116; experiment: NCI single dose (10 µM) SRB screen; type: cell-based, human; details: colon cancer, 48 h
[33] = test system: MOLT-4; experiment: NCI single dose (10 µM) SRB screen; type: cell-based, human; details: leukaemia, 48 h
[34] = test system: NCI/ADR-RES; experiment: NCI single dose (10 µM) SRB screen; type: cell-based, human; details: ovarian cancer, 48 h
[35] = test system: Aspergillus flavus; experiment: Agar well diffusion method
[36] = test system: OVCAR-4; experiment: NCI single dose (10 µM) SRB screen; type: cell-based, human; details: ovarian cancer, 48 h
[37] = test system: SK-MEL-2; experiment: NCI single dose (10 µM) SRB screen; type: cell-based, human; details: melanoma, 48 h
[38] = test system: CAKI-1; experiment: NCI single dose (10 µM) SRB screen; type: cell-based, human; details: renal cancer, 48 h
[39] = test system: UO-31; experiment: NCI single dose (10 µM) SRB screen; type: cell-based, human; details: renal cancer, 48 h
[40] = test system: SR; experiment: NCI single dose (10 µM) SRB screen; type: cell-based, human; details: leukaemia, 48 h
[41] = test system: OVCAR-3; experiment: NCI single dose (10 µM) SRB screen; type: cell-based, human; details: ovarian cancer, 48 h
[42] = test system: ACHN; experiment: NCI single dose (10 µM) SRB screen; type: cell-based, human; details: renal cancer, 48 h
[43] = test system: SN12C; experiment: NCI single dose (10 µM) SRB screen; type: cell-based, human; details: renal cancer, 48 h
[44] = test system: EKVX; experiment: NCI single dose (10 µM) SRB screen; type: cell-based, human; details: non-small cell lung cancer, 48 h
[45] = test system: TK-10; experiment: NCI single dose (10 µM) SRB screen; type: cell-based, human; details: renal cancer, 48 h
[46] = test system: NCI-H322M; experiment: NCI single dose (10 µM) SRB screen; type: cell-based; details: non-small cell lung cancer, 48 h
[47] = test system: U251; experiment: NCI single dose (10 µM) SRB screen; type: cell-based, human; details: CNS cancer, 48 h
[48] = test system: RXF 393; experiment: NCI single dose (10 µM) SRB screen; type: cell-based, human; details: renal cancer, 48 h
[49] = test system: K-562; experiment: NCI single dose (10 µM) SRB screen; type: cell-based, human; details: leukaemia, 48 h
[50] = test system: UACC-257; experiment: NCI single dose (10 µM) SRB screen; type: cell-based, human; details: melanoma, 48 h
[51] = test system: MALME-3M; experiment: NCI single dose (10 µM) SRB screen; type: cell-based, human; details: melanoma, 48 h
[52] = test system: SNB-19; experiment: NCI single dose (10 µM) SRB screen; type: cell-based, human; details: CNS cancer, 48 h
[53] = test system: NCI-H522; experiment: NCI single dose (10 µM) SRB screen; type: cell-based, human; details: non-small cell lung cancer, 48 h

SMILES: CCOC(=O)C1=C(C)NC(C)=C(C(=O)OCC)C1c1cccc(C#N)c1 [Compound 1b, Diethyl 4-(3-cyanophenyl)-2,6-dimethyl-1,4-dihydropyridine-3,5-dicarboxylate]
- GI% MCF7 [1]: 15%
- GI% NCI-H23 [2]: – (Only GI% ≥ 10 are shown)
- GI% DU-145 [3]: – (Only GI% ≥ 10 are shown)
- GI% KM12 [4]: 27%
- zone of inhibition at 1000 µg/mL ([5]; Escherichia coli, 24 h, read-out: Diameter of inhibition zone, E. coli): 7 mm
- % activity index, E. coli ([5]; relative to ciprofloxacin): 26.9%
- GI% T-47D [6]: 23%
- GI% M14 [7]: – (Only GI% ≥ 10 are shown)
- GI% HS578T [8]: 16%
- Mean GI% [9]: 8%
- GI% NCI-H226 [10]: – (Only GI% ≥ 10 are shown)
- GI% OVCAR-5 [11]: – (Only GI% ≥ 10 are shown)
- GI% MDA-MB-231 [12]: – (Only GI% ≥ 10 are shown)
- GI% UACC-62 [13]: 20%
- GI% LOX IMVI [14]: – (Only GI% ≥ 10 are shown)
- GI% HT29 [15]: – (Only GI% ≥ 10 are shown)
- GI% COLO 205 [16]: – (Only GI% ≥ 10 are shown)
- GI% HOP-92 [17]: 10%
- GI% OVCAR-8 [18]: – (Only GI% ≥ 10 are shown)
- GI% A498 [19]: – (Only GI% ≥ 10 are shown)
- zone of inhibition at 1000 µg/mL ([20]; Candida albicans, 24 h, read-out: Diameter of inhibition zone, C. albicans): 15 mm
- % activity index, C. albicans ([20]; relative to clotrimazole): 55.5%
- GI% SW-620 [21]: – (Only GI% ≥ 10 are shown)
- GI% IGROV1 [22]: – (Only GI% ≥ 10 are shown)
- GI% SF-268 [23]: – (Only GI% ≥ 10 are shown)
- GI% PC-3 [24]: 20%
- GI% NCI-H460 [25]: – (Only GI% ≥ 10 are shown)
- GI% SF-539 [26]: – (Only GI% ≥ 10 are shown)
- GI% 786-0 [27]: – (Only GI% ≥ 10 are shown)
- GI% SK-MEL-5 [28]: – (Only GI% ≥ 10 are shown)
- GI% HCC-2998 [29]: – (Only GI% ≥ 10 are shown)
- GI% HCT-15 [30]: 23%
- GI% MDA-MB-468 [31]: 22%
- GI% HCT-116 [32]: 11%
- GI% MOLT-4 [33]: – (Only GI% ≥ 10 are shown)
- GI% NCI/ADR-RES [34]: – (Only GI% ≥ 10 are shown)
- zone of inhibition at 1000 µg/mL ([35]; Aspergillus flavus, 24 h, read-out: Diameter of inhibition zone, A. flavus): 16 mm
- % activity index, A. flavus ([35]; relative to clotrimazole): 64%
- GI% OVCAR-4 [36]: – (Only GI% ≥ 10 are shown)
- GI% SK-MEL-2 [37]: – (Only GI% ≥ 10 are shown)
- GI% CAKI-1 [38]: 31%
- GI% UO-31 [39]: 13%
- GI% SR [40]: 48%
- GI% OVCAR-3 [41]: – (Only GI% ≥ 10 are shown)
- GI% ACHN [42]: – (Only GI% ≥ 10 are shown)
- GI% SN12C [43]: – (Only GI% ≥ 10 are shown)
- GI% EKVX [44]: – (Only GI% ≥ 10 are shown)
- GI% TK-10 [45]: – (Only GI% ≥ 10 are shown)
- GI% NCI-H322M [46]: – (Only GI% ≥ 10 are shown)
- GI% U251 [47]: – (Only GI% ≥ 10 are shown)
- GI% RXF 393 [48]: 10%
- GI% K-562 [49]: 43%
- GI% UACC-257 [50]: – (Only GI% ≥ 10 are shown)
- GI% MALME-3M [51]: – (Only GI% ≥ 10 are shown)
- GI% SNB-19 [52]: – (Only GI% ≥ 10 are shown)
- GI% NCI-H522 [53]: 12%
